Assay results from US12712060B2, “Multi-modal crypto/bio-human-machine interface” (The Regents of the University of California, priority 2022, dated 2026).
Blank lines part the entries; values can stand above or below the molecule they belong to.

What was measured:
[1] = human, in vivo, 60 min
Description: Embodiments specifically employ the ethanol TH-sensor to assess whether the sensor is capable of differentiating between two states: no alcohol-intake vs. recent intake of an alcoholic beverage. For this context, defined were the measured signal S as the slope of the sensor's amperometric response, and the threshold as Sfree, avg+3×Sfree, SD, where Sfree, avg and Sfree, SD are the average and standard deviation of the signals obtained from the alcohol-free subject (three trials). […] Then performed were touch-based TH-sensor measurements before (t=−20 min) and after (t=+60 min) the intake of an alcoholic beverage (~100 mL, 12.5% alcohol).
Two human subjects participated in the characterization of each type of TH-sensor. For each trial, the subjects were instructed to wash their index fingertips with deionized (DI) water before testing and to rinse their mouth with cold water immediately after the beverage/medication intake (to avoid contamination from residue). Touch-based measurements were performed using corresponding TH-sensors before and at intermittent time points after the beverage/medication intake. The water loss from the fingertip was monitored by an evaporimeter (VapoMeter, Delfin Technologies). The fingertip temperature was monitored by a thermocouple (HT-9815, RISEPRO). […] BAC was estimated using an alcohol breathalyzer (S80, BACtrack Inc.). […]

[2] = touch-based APAP TH-sensor (DPV) measurement on index fingertip after APAP medication intake; assay type: in vivo, human; details: 60 min after intake of 650 mg APAP, APAP-free threshold 3.7 nA
Procedure: Adopted was a similar study framework to evaluate the in-situ detection capability of APAP TH-sensor. For this context, the measured signal is defined as the voltammetric current peak height ([…]), and the threshold for determining the APAP-free state was measured as 3.7 nA (three trials). FIGS. 3D and 3E show the corresponding voltammograms measured by the APAP TH-sensor, 10 min before and 60 min after the intake of an APAP-based medication (containing 650 mg APAP). The comparison of the two voltammograms and the corresponding extracted current peaks (IP, pre-intake ~0 nA vs. IP, post-intake ~15 nA) validates that the developed TH-sensor is capable of detecting the presence of circulating APAP molecules via the devised touch-based modality.

[3] = cited from earlier work
[4] = patient, 900 mg lithium carbonate; ~0-1 h pre-intake vs ~1-2 h post-intake
Procedure: Further validated was the performance of the developed TOH-ISE in an in-situ lithium adherence monitoring study. To this end, a subject prescribed lithium-based medication was recruited. […] In a control experiment, touch-based sensing and salivary lithium analysis were also performed on three healthy subjects, where circulating lithium is expected to be negligible.
In-situ TOH-ISE characterization. […] For each touch-based entry, the subjects were instructed to wash their index or middle fingertips with DI water before testing. The acquired potentiometric readouts were processed using the same method as the ex-situ experiments to extract the sensing signal. For saliva collection, the subjects were instructed to rinse their mouth with cold water before collection. The samples were collected via direct salivation using a Saliva Collection Aid (Salimetrics, CA, USA). The salivary lithium was quantified using a colorimetric lithium assay kit (Abcam ab235613, MA, USA) and Nanodrop One (Thermo Fisher, MA, USA).

ethanol TH-sensor signal S (slope of amperometric response) [1]: 21.5 nA/min
Compound: CCO [ethanol]

APAP TH-sensor voltammetric current peak height IP, post-intake [2]: ~ 15 nA
Compound: CC(=O)Nc1ccc(O)cc1 [APAP, acetaminophen]

TOH-ISE touch-based sensing signal, post versus pre drug intake [4]: larger signal
Compound: O=C([O-])[O-].[Li+].[Li+] [lithium, lithium carbonate]
clinically relevant range in non-invasively retrievable biofluid (e.g., saliva) ([3]; saliva, ~twice the corresponding serum concentrations): 0.5 to 3 mM
therapeutic window ([3]; severe adverse effects if overdosed): 0.6 to 1.2 mM
